Data on 10 molecules can be found in ChEMBL document CHEMBL2046383, “Hyrtioreticulins A-E, indole alkaloids inhibiting the ubiquitin-activating enzyme, from the marine sponge Hyrtios reticulatus” (Bioorg Med Chem, 2012).

In assay [1] the target is T1, Ubiquitin-like modifier-activating enzyme 1 (Homo sapiens, UniProt P22314).
T1 sequence (P22314 whole entry): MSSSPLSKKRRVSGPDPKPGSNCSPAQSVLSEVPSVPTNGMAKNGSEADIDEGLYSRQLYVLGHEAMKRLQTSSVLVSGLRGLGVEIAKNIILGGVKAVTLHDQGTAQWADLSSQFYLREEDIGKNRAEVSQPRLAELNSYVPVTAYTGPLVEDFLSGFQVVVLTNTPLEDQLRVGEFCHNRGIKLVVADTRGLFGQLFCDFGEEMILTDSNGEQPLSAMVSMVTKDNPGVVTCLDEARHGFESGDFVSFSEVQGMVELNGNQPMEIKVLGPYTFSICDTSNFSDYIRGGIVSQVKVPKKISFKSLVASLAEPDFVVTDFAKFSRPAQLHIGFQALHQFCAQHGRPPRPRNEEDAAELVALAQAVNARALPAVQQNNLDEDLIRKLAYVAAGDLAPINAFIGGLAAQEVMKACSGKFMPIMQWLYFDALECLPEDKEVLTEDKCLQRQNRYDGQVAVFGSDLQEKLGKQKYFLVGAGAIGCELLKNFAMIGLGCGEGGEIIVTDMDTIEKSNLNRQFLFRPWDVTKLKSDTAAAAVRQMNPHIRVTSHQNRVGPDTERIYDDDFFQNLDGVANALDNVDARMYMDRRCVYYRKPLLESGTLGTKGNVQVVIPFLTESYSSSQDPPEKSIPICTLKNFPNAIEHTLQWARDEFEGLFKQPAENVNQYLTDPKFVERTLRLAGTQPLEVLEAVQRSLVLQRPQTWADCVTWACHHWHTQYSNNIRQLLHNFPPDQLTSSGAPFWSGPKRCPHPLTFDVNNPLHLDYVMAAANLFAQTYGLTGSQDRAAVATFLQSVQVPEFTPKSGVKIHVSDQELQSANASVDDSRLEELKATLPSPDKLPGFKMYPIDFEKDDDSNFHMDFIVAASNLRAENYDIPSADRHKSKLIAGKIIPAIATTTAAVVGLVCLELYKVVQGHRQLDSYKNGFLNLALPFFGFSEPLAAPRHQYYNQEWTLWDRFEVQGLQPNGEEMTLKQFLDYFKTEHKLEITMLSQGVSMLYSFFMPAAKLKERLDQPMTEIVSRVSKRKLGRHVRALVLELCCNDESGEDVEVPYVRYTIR
Briefly: Inhibition of recombinant fluorescein-tagged E1 assessed as inhibition of ubiquitin-E1 adduct formation incubated for 15 mins prior to ATP addition measured after 5 mins by SDS PAGE analysis.

The test system of another assay is HeLa. Description: Cytotoxicity against human HeLa cells at 50 ug/mL. The format is functional, cell-based.
Assay [2] addresses T2, Ubiquitin-like modifier-activating enzyme 1 (Homo sapiens) (UniProt P22314).
T2 sequence (whole entry): T1 sequence (P22314 whole entry)
Description: Inhibition of GST-tagged ubiquitin binding to FLAG-tagged E1 at 50 uM after 20 mins by immunoprecipitation analysis.

Assay [3] concerns the target T1, Ubiquitin-like modifier-activating enzyme 1. Briefly: Inhibition of ubiquitin-activating enzyme E1.
For assay [4], the target named is T2, Ubiquitin-like modifier-activating enzyme 1 (Homo sapiens). Briefly: Inhibition of FLAG-tagged ubiquitin-activating enzyme E1 assessed as inhibition of GST-ubiquitin/FLAG-E1 intermediate formation at 100 uM by Western blot analysis. For orientation: In western blotting, separated proteins are transferred to a membrane and probed.
Assay [5] deals with T1, Ubiquitin-like modifier-activating enzyme 1. Briefly: (§1) Inhibition of FLAG-tagged ubiquitin-activating enzyme E1 assessed as inhibition of GST-ubiquitin/FLAG-E1 intermediate formation by Western blot analysis.
Assay [6] concerns the target T2, Ubiquitin-like modifier-activating enzyme 1 (Homo sapiens). The assay is described as §1.

SMILES strings stand for the structures. Active and inactive are the calls of the source. The rule behind the calls is not given here.

For `CCCCCCCC(=O)SCC/C=C/[C@@H]1CC(=O)NCc2nc(cs2)C2=N[C@@](C)(CS2)C(=O)N[C@@H](C(C)C)C(=O)O1` [LARGAZOLE], the half-inhibitory concentration (IC50) in assay [1] is 29 µM.
For the molecule `C[C@H]1N[C@H](C(=O)O)Cc2c[nH]c3ccc(O)c1c23`, in the assay on HeLa, the outcome was inactive.
In the case of `C[C@@H](CC(=O)NC(=O)c1coc(/C=C/CCCCCCCCC(=O)O)cc1=O)C(=O)O`, in assay [2], the inhibition entry was “Active”.
For the molecule `C[C@H]1N[C@H](C(=O)O)Cc2c1[nH]c1ccc(O)cc21`, the outcome with HeLa was inactive.
The molecule `CC(C)(O)/C=C/[C@@]12[C@H]3[C@@H](O)[C@@H]4O[C@@H]4[C@]1(O)OC(C)(C)[C@H]2C=C1C(=O)[C@H]2O[C@H]2[C@H](O)[C@H]13` [PANEPOPHENANTHRINE] displayed an IC50 in assay [3] of 40 µM.
`C[C@H]1N[C@@H](C(=O)O)Cc2c1[nH]c1ccc(O)cc21`: the outcome with HeLa was inactive. Further, in assay [4], the inhibition result is “Active”.
Take `O=C(O)[C@@H]1Cc2c([nH]c3ccc(O)cc23)[C@@H](Cc2cnc[nH]2)N1` [HYRTIORETICULIN A]: the IC50 in assay [5] stood at 2.4 µM.
Take `C[C@@H]1N[C@H](C(=O)O)Cc2c[nH]c3ccc(O)c1c23`: the outcome in the assay on HeLa was inactive.
In the case of `O=C(O)[C@@H]1Cc2c([nH]c3ccc(O)cc23)[C@@H](Cc2c[nH]cn2)N1`, the outcome in the assay on HeLa was inactive. In addition, the inhibition entry in assay [2] was “inactive”. In assay [6], the inhibition entry is “Dose-dependent effect”.
Regarding `O=C(O)[C@@H]1Cc2c([nH]c3ccc(O)cc23)[C@H](Cc2c[nH]cn2)N1` [HYRTIORETICULIN B], in the assay on HeLa, the outcome was inactive. In assay [2], the inhibition entry is “inactive”. The inhibition entry in assay [6] is “Dose-dependent effect”. In addition, the IC50 in assay [5] is 35 µM.

By IC50 is commonly meant the point on the concentration scale where inhibition reaches its midpoint.
